In patent US20040253665A1, “Novel peptide-producing enzyme, microbe producing the enzyme and method for dipeptide synthesis using them” (AJINOMOTO CO., INC., priority 2002, published 2004):
Non-standard residues stand in square brackets, D forms with d. Residues, ends and D or L forms follow the SMILES beside them. Cha = N[C@@H](CC1CCCCC1)C(=O)O

System: peptide-producing enzyme (Mono S fraction) from Empedobacter brevis strain FERM BP-8113
Test: Enzyme substrate specificity (1)-(10), (13), (14)
Format: biochemical
Design: key: +: those for which production was confirmed but which were unable to be quantified due to the absence of a standard; a trace amount
Source text: Ester specificity was examined in the case of using L-amino acid ester for the carboxy component. […] The amounts of L-Ala-L-Gln produced in this reaction are shown in Table 4 (HCl represents hydrochloride in Table 4). Peptide production was examined in the case of using L-alanine methyl ester for the carboxy component and using various L-amino acids for the amine component. […] (The “+” mark indicates those peptides for which production was confirmed but which were unable to be quantified due to the absence of a standard, while “tr” indicates a trace amount.) Peptide production was examined in the case of using various types of L-amino acid methyl esters for the carboxy component and using L-glutamine for the amine component. […] Peptide production was examined in the case of using various L-amino acid methyl esters for the carboxy component and various L-amino acids for the amine component. […] (The “tr” indicates a trace amount.) Furthermore, Tween-80 was added to the reaction system to a final concentration of 0.1% in the case of using L-Trp-OMe. (The “+” mark indicates those peptides for which production was confirmed but which were unable to be quantified due to the absence of a standard.) […] (The “tr” indicates a trace amount.) Peptide production was examined using various L-amino acid amides for the carboxy component, and various L-amino acids for the amine component. […] Peptide production was examined in the case of using various L-alanine methyl esters for the carboxy component and C-protected L-amino acids for the amine component. […] Peptide production was examined in the case of using various amino acid methyl esters for the carboxy component and methylamine for the amine component. […] Peptide production was examined in the case of using β-amino acid ester for the carboxy component or β-amino acid for the amine component. […] (The “tr” indicates a trace amount.) Oligopeptide production was examined in the case of using L-amino acid ester for the carboxy component and peptide for the amine component. […] Substrate specificity was additionally assessed using the same enzyme fraction as that used in Example 5. […] (A “+” mark indicates those for which production was confirmed but which were unable to be quantified due to the absence of a standard, while “tr” indicates a trace amount). Substrate specificity with respect to oligopeptide production was assessed using the same enzyme fraction as Example 26. […] (A “+” mark indicates those for which production was confirmed but which were unable to be quantified due to the absence of a standard, while “tr” indicates a trace amount). It should be noted that hydrochlorides were used for all of the carboxy components.

With L-Ala-Gly-Gly-L-Phe-L-Met as the compound, how does the “Produced peptide (mM)” value (oligopeptide production, amount of enzyme 0.2 units, pH 9.0, 25° C., 3 hours) read?
Its value is “+”.

With `N[C@@H](CC1CCCCC1)C(=O)N[C@@H](Cc1ccccc1)C(=O)O` [H-CHA-Phe-OH] (H-[Cha]-Phe-OH) as the compound, how does the “Produced peptide (mM)” value (carboxy component 40 mM, amine component 40 mM, 0.1 unit enzyme, 25° C., reaction time 3 hr) read?
Its value is “+”.
